# Read-outs that look alike come from different tables or passages of the source.
# Experiments:
# [1] = Example 3: pharmacokinetics of 4-hydroxy tamoxifen gel in healthy premenopausal women; type: in vivo, human
# Experimental: Each participant applied the gel daily for the duration of two menstrual cycles.
# At the end of a menstrual cycle, each patient received a single dose, after which serial blood samples were collected at 0, 0.5, 1, 1.5, 2, 3, 4, 6, 12, 18, 24, 36, 48, and 72 hours.
# On the first day of the following menstruation, treatment, which consisted of daily application of the gel over two menstrual cycles, began. Blood samples were collected 24 hours following the morning application of gel on days 7, 20 and 25 of the first and second cycles. On the last day of administration, day 25 of the second menstrual cycle, serial blood samples were collected prior to application and at 0.5, 1, 1.5, 2, 3, 4, 6, 12, 18, 24, 36, 48, and 72 hours after application of the gel.
# [2] = Example 1: percutaneous [3H]-4-hydroxy tamoxifen delivery in breast cancer patients (tissue, blood, urine radioactivity)
# Experimental: The patients received [^3H]-labeled drug applied directly on the affected breasts at specified intervals ranging from 12 hours to 7 days before surgery to excise diseased tissue. Breast tissue from three regions: the tumor, tissue immediately surrounding the tumor, and normal tissue, was excised and immediately frozen in liquid nitrogen. Additionally, plasma and urine samples were obtained at scheduled intervals and frozen until analysis.
# [3] = test system: rat liver; settings: in vivo; cited from earlier work
# [4] = test system: mastalgia; assay: Example 4: efficacy of percutaneous 4-hydroxy tamoxifen in mastalgia; type: in vivo, human
# Text: All patients had normal mammograms within the previous 6 months, and utilized contraception throughout the study and 3 months preceding it.
# The primary criteria considered were the number of painful days per month and the mean pain severity during the last 10 days of the menstrual cycle. Assessments of pain were made by patient self-evaluation. Secondary criteria included clinical assessment by the physician of breast tenderness, nodularity, breast size, local warmth, and breast circumference. Any side effects were recorded.
# Daily self-evaluation of pain continued as in the earlier stage.
# [5] = Skin penetration; settings: without assistance from penetration enhancers
# [6] = test system: mastalgia; settings: cited from earlier work; for side effects: cyclical mastalgia treatment, nausea, vomiting, dizziness, headache, acne, sweating, amenorrhea, weight gain
smiles,measurement,setting,value
"CC/C(=C(\c1ccc(O)cc1)c1ccc(OCCN(C)C)cc1)c1ccccc1 [4-hydroxy tamoxifen, 1-[4-(2-N-dimethylaminoethoxy)phenyl]-1-(4-hydroxyphenyl)-2-phenylbut-1-(Z)-ene]",plasma concentrations after the last gel application,[1]; 72 hours after the last gel application,remained detectable
same,"Plasma concentration of 4-hydroxy tamoxifen, Mean ± SD (Range)","[1]; +8 days after last application, 0.5 mg/day, gel 20 mg/100 g",<LOQ
same,"Plasma concentration of 4-hydroxy tamoxifen, Mean ± SD (Range)","[1]; +8 days after last application, 1 mg/day, gel 57 mg/100 g",(0-14.8) pg/mL
same,"Plasma concentration of 4-hydroxy tamoxifen, Mean ± SD (Range)","[1]; +12 days after last application, 0.5 mg/day, gel 20 mg/100 g",≤ 9.09 pg/mL
same,"Plasma concentration of 4-hydroxy tamoxifen, Mean ± SD (Range)","[1]; +12 days after last application, 2 mg/day, gel 57 mg/100 g",(0-30.4) pg/mL
same,"Plasma concentration of 4-hydroxy tamoxifen, Mean ± SD (Range)","[1]; +20 days after last application, 0.5 mg/day, gel 20 mg/100 g",0 pg/mL
same,"Plasma concentration of 4-hydroxy tamoxifen, Mean ± SD (Range)","[1]; +20 days after last application, 1 mg/day, gel 20 mg/100 g",<LOQ
same,"Plasma concentration of 4-hydroxy tamoxifen, Mean ± SD (Range)","[1]; First cycle, Day 1, 0 hr, 0.5 mg/day, gel 20 mg/100 g",(0-17.2) pg/mL
same,"Plasma concentration of 4-hydroxy tamoxifen, Mean ± SD (Range)","[1]; First cycle, Day 1, 0 hr, 1 mg/day, gel 20 mg/100 g",(0-13.9) pg/mL
same,"Plasma concentration of 4-hydroxy tamoxifen, Mean ± SD (Range)","[1]; First cycle, Day 1, 0 hr, 1 mg/day, gel 57 mg/100 g",(0-9.5) pg/mL
same,"Plasma concentration of 4-hydroxy tamoxifen, Mean ± SD (Range)","[1]; First cycle, Day 1, 0 hr, 2 mg/day, gel 57 mg/100 g",(0-0) pg/mL
same,plasma concentrations after a single dose,"[1]; single 0.5 mg dose, gel",did not produce detectable plasma concentrations
same,peak urinary elimination compared to percutaneous tamoxifen,[2]; percutaneous administration,later time
same,metabolism in cytosolic and nuclear fractions of breast tissue,[2]; percutaneous application,remained unmetabolized except for limited isomerization from the trans to the cis form
same,rat liver carcinogenicity,[3],not
same,reduction of mean number of days with pain,[4]; 1.5 mg/day,more than 50%
same,reduction of mean pain intensity,[4]; 1.5 mg/day,more than 50%
same,Mean Number of Days of Pain Level Greater than 20,"[4]; 1 dose/breast, 0.5 mg/day, placebo 8.1 +/− 4.2",9.3 ± 5.2 days
same,Mean Pain Intensity During the Last 10 Days of the Menstrual Cycle,"[4]; 1 dose/breast, 0.5 mg/day, placebo 34 +/− 25",38 +/− 25 /100
same,Mean Number of Days of Pain Level Greater than 20,"[4]; 2 doses/breast, 1.0 mg/day",8.2 ± 5.5 days
same,Mean Pain Intensity During the Last 10 Days of the Menstrual Cycle,"[4]; 2 doses/breast, 1.0 mg/day",29 +/− 23 /100
same,Mean Number of Days of Pain Level Greater than 20,"[4]; 3 doses/breast, 1.5 mg/day",3.6 ± 5.2 days
same,Mean Pain Intensity During the Last 10 Days of the Menstrual Cycle,"[4]; 3 doses/breast, 1.5 mg/day",15 +/− 19 /100
same,Mean Number of Days of Pain Level Greater than 20,"[4]; 4 doses/breast, 2.0 mg/day",4.7 ± 4.4 days
same,Mean Pain Intensity During the Last 10 Days of the Menstrual Cycle,"[4]; 4 doses/breast, 2.0 mg/day",17 +/− 19 /100
same,skin penetration,[5],poorly penetrates the skin
CCC(=C(c1ccc(O)cc1)c1ccc(O)cc1)c1ccccc1 [Bisphenol],% Metabolites in Breast Tissue,[2]; 12 hr after percutaneous trans-[3H]-4-hydroxy tamoxifen to the affected breast,1%
same,share of radioactivity in blood,[2]; 24 hours after percutaneous administration of [3H]-4-hydroxy tamoxifen,11%
same,% Metabolites in Breast Tissue,[2]; 24 hr after percutaneous trans-[3H]-4-hydroxy tamoxifen to the affected breast,2%
same,% Metabolites in Breast Tissue,[2]; 36 hr after percutaneous trans-[3H]-4-hydroxy tamoxifen to the affected breast,3%
same,% Metabolites in Breast Tissue,[2]; Day 4 after percutaneous trans-[3H]-4-hydroxy tamoxifen to the affected breast,8%
same,% Metabolites in Breast Tissue,[2]; Day 7 after percutaneous trans-[3H]-4-hydroxy tamoxifen to the affected breast,8%
"CC/C(=C(\c1ccccc1)c1ccc(OCCN(C)C)cc1)c1ccccc1 [[^3H]-tamoxifen, reference compound]",plateau of radioactivity in blood,[2]; percutaneous application,2 days
CC(C)C[C@H]1C(=O)N2CCC[C@H]2[C@]2(O)O[C@](NC(=O)[C@@H]3C=C4c5cccc6[nH]c(Br)c(c56)C[C@H]4N(C)C3)(C(C)C)C(=O)N12 [bromocriptine],side effects,[6],significant unwanted side effects
C#C[C@]1(O)CC[C@H]2[C@@H]3CCC4=Cc5oncc5C[C@]4(C)[C@H]3CC[C@@]21C [danazol],side effects,[6],significant unwanted side effects
same,efficacy at relieving cyclical mastalgia,"[6]; human, in vivo",some efficacy
CC/C(=C(\c1ccccc1)c1ccc(OCCN(C)C)cc1)c1ccccc1 [tamoxifen],retention in the breast,[2]; percutaneous application of [3H]-labeled drug to the affected breast,shorter and far weaker
same,side effects reported by mastalgia patients,[6]; oral tamoxifen,"hot flashes, vaginal discharge, depression, amenorrhea, and nausea"
same,patients with reduced pain,"[6]; orally administered, patients with moderate to severe mastalgia",71-90%
same,effective at reducing pain,[6]; patients with cyclical mastalgia,94%
same,effective at reducing pain,[6]; patients with non-cyclical mastalgia,56%
